Molecular target: T1, BRM (Homo sapiens, UniProt P51531)
T1 construct: In-Cell Western Screen of BRM Degradation in SW1573 Cells; endogenous in cells; host or cells: SW1573
Assay: In-cell Western screen of BRM degradation in SW1573 cells (Dmax and DC50)
Type: cell-based
Conditions: for DC50: degradation of BRM, read-out: BRM DC50; for Dmax: SW1573, % degraded, when tested at the top concentration of between 0.3 and 10 μM, read-out: BRM Dmax (%)
Outline: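 Adherent SW1573 cultures exposed to test compounds for 18-20 h were processed for in-cell Western after PFA fixation and detergent permeabilization. BRM degradation was reported as Dmax and DC50.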

T1 sequence (P51531 whole entry): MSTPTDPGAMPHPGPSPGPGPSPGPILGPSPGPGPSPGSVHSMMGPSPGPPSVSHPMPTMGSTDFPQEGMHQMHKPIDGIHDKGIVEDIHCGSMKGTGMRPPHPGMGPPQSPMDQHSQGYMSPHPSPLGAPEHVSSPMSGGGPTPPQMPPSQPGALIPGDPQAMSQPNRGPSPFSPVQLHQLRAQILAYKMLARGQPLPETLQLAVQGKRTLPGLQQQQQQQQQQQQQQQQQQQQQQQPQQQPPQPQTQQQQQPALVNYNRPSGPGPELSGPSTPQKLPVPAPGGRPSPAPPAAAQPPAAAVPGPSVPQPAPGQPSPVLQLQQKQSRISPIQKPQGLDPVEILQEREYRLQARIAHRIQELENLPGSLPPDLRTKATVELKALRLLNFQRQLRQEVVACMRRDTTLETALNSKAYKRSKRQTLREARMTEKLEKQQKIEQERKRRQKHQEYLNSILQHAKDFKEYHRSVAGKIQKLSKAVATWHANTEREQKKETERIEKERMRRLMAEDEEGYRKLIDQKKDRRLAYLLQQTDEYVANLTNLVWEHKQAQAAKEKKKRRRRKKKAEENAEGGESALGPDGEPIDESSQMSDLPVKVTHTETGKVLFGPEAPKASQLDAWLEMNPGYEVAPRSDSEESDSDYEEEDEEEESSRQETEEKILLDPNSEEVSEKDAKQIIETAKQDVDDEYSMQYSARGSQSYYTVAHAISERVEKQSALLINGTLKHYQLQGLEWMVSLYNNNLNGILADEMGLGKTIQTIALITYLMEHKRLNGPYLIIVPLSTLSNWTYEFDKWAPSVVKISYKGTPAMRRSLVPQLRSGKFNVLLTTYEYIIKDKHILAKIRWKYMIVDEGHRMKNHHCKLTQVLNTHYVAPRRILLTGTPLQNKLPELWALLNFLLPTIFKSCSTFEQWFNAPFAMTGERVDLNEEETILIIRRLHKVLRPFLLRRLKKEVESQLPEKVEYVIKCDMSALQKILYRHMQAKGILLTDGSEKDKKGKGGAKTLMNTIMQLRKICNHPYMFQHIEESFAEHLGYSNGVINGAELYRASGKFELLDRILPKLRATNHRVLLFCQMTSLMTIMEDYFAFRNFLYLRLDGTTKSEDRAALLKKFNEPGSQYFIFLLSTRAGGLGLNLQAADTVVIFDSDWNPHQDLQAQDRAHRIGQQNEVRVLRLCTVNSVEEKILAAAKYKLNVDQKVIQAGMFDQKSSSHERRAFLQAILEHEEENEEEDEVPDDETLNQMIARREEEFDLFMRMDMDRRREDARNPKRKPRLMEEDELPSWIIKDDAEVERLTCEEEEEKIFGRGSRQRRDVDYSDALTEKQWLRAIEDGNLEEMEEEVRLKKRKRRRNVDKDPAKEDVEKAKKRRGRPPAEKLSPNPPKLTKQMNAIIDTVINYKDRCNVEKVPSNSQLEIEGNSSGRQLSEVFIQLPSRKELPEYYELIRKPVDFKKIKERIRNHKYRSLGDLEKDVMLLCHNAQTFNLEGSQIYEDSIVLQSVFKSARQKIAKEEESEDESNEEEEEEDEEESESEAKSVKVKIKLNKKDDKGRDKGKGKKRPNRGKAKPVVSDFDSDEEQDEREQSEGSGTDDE

SMILES	DC50 [nM]	Dmax [%]
Cc1ncsc1-c1ccc([C@H](C)NC(=O)[C@@H]2C[C@@H](O)CN2C(=O)[C@H](c2cc(OCC(F)(F)CN3CCC(O[C@H]4C[C@H](Oc5cc(N6C7CCC6CN(c6cc(-c8ccccc8O)nnc6N)C7)ccn5)C4)CC3)no2)C(C)C)cn1 [compound 421, (2S,4R)-1-((2S)-2-(3-(3-(4-((1r,3S)-3-((4-(3-(3-amino-6-(2-hydroxyphenyl)pyridazin-4-yl)-3,8-diazabicyclo[3.2.1]octan-8-yl)pyridin-2-yl)oxy)cyclobutoxy)piperidin-1-yl)-2,2-difluoropropoxy)isoxazol-5-yl)-3-methylbutanoyl)-4-hydroxy-N-((S)-1-(6-(4-methylthiazol-5-yl)pyridin-3-yl)ethyl)pyrrolidine-2-carboxamide]	> 30	–
Cc1ncsc1-c1ccc([C@H](C)NC(=O)[C@@H]2C[C@@H](O)CN2C(=O)[C@@H](c2cc(OCC(F)(F)CN3CCC(O[C@H]4C[C@H](Oc5cc(N6C7CCC6CN(c6cc(-c8ccccc8O)nnc6N)C7)ccn5)C4)CC3)no2)C(C)C)cn1 [compound 422, (2S,4R)-1-((2R)-2-(3-(3-(4-((1r,3R)-3-((4-(3-(3-amino-6-(2-hydroxyphenyl)pyridazin-4-yl)-3,8-diazabicyclo[3.2.1]octan-8-yl)pyridin-2-yl)oxy)cyclobutoxy)piperidin-1-yl)-2,2-difluoropropoxy)isoxazol-5-yl)-3-methylbutanoyl)-4-hydroxy-N-((S)-1-(6-(4-methylthiazol-5-yl)pyridin-3-yl)ethyl)pyrrolidine-2-carboxamide]	< 2.5	> 75
Cc1ncsc1-c1ccc([C@@H](NC(=O)[C@@H]2C[C@@H](O)CN2C(=O)[C@H](c2cc(OCCN3CCC(O[C@H]4C[C@H](Oc5cc(N6C7CCC6CN(c6cc(-c8ccccc8O)nnc6N)C7)ccn5)C4)CC3)no2)C(C)C)C(=O)N(C)C2CCC2)cc1 [compound 423, (2S,4R)-1-((2S)-2-(3-(2-(4-((1r,3S)-3-((4-(3-(3-amino-6-(2-hydroxyphenyl)pyridazin-4-yl)-3,8-diazabicyclo[3.2.1]octan-8-yl)pyridin-2-yl)oxy)cyclobutoxy)piperidin-1-yl)ethoxy)isoxazol-5-yl)-3-methylbutanoyl)-N-((R)-2-(cyclobutyl(methyl)amino)-1-(4-(4-methylthiazol-5-yl)phenyl)-2-oxoethyl)-4-hydroxypyrrolidine-2-carboxamide]	> 30	–
Cc1cc([C@@H](C(=O)N2C[C@H](O)C[C@H]2C(=O)N[C@@H](C)c2ccc(-c3scnc3C)cc2)[C@H](C)COCCCCN2C3CCC2CN(c2cc(-c4ccccc4O)nnc2N)C3)on1 [compound 424, (2S,4R)-1-((2S,3S)-4-(4-(3-(3-amino-6-(2-hydroxyphenyl)pyridazin-4-yl)-3,8-diazabicyclo[3.2.1]octan-8-yl)butoxy)-3-methyl-2-(3-methylisoxazol-5-yl)butanoyl)-4-hydroxy-N-((S)-1-(4-(4-methylthiazol-5-yl)phenyl)ethyl)pyrrolidine-2-carboxamide]	> 30	–
Cc1cc([C@H](C(=O)N2C[C@H](O)C[C@H]2C(=O)N[C@@H](C)c2ccc(-c3scnc3C)cc2)[C@H](C)COCCCCN2C3CCC2CN(c2cc(-c4ccccc4O)nnc2N)C3)on1 [compound 425, (2S,4R)-1-((2R,3S)-4-(4-(3-(3-amino-6-(2-hydroxyphenyl)pyridazin-4-yl)-3,8-diazabicyclo[3.2.1]octan-8-yl)butoxy)-3-methyl-2-(3-methylisoxazol-5-yl)butanoyl)-4-hydroxy-N-((S)-1-(4-(4-methylthiazol-5-yl)phenyl)ethyl)pyrrolidine-2-carboxamide]	> 30	–
Cc1ncsc1-c1ccc([C@H](C)NC(=O)[C@@H]2C[C@@H](O)CN2C(=O)[C@H](c2cc(N3CCN(CC4CCN(C[C@H]5C[C@H](Oc6cc(N7C8CCC7CN(c7cc(-c9ccccc9O)nnc7N)C8)ccn6)C5)CC4)CC3)no2)C(C)C)cn1 [compound 426, (2S,4R)-1-((2S)-2-(3-(4-((1-(((11,3r)-3-((4-(3-(3-amino-6-(2-hydroxyphenyl)pyridazin-4-yl)-3,8-diazabicyclo[3.2.1]octan-8-yl)pyridin-2-yl)oxy)cyclobutyl)methyl)piperidin-4-yl)methyl)piperazin-1-yl)isoxazol-5-yl)-3-methylbutanoyl)-4-hydroxy-N-((S)-1-(6-(4-methylthiazol-5-yl)pyridin-3-yl)ethyl)pyrrolidine-2-carboxamide]	> 30	–
Cc1ncsc1-c1ccc([C@H](C)NC(=O)[C@@H]2C[C@@H](O)CN2C(=O)[C@@H](c2cc(N3CCN(CC4CCN(C[C@H]5C[C@H](Oc6cc(N7C8CCC7CN(c7cc(-c9ccccc9O)nnc7N)C8)ccn6)C5)CC4)CC3)no2)C(C)C)cn1 [compound 427, (2S,4R)-1-((2R)-2-(3-(4-((1-(((1r,3r)-3-((4-(3-(3-amino-6-(2-hydroxyphenyl)pyridazin-4-yl)-3,8-diazabicyclo[3.2.1]octan-8-yl)pyridin-2-yl)oxy)cyclobutyl)methyl)piperidin-4-yl)methyl)piperazin-1-yl)isoxazol-5-yl)-3-methylbutanoyl)-4-hydroxy-N-((S)-1-(6-(4-methylthiazol-5-yl)pyridin-3-yl)ethyl)pyrrolidine-2-carboxamide]	< 2.5	> 75
Cc1ncsc1-c1ccc([C@H](C)NC(=O)[C@@H]2C[C@@H](O)CN2C(=O)[C@@H](c2cc(OCCN3CCC(O[C@H]4C[C@H](Oc5cc(/C=C/c6cc(-c7ccccc7O)nnc6N)ccn5)C4)CC3)no2)C(C)C)cc1 [compound 428, (2S,4R)-1-((R)-2-(3-(2-(4-((1r,3R)-3-((4-((E)-2-(3-amino-6-(2-hydroxyphenyl)pyridazin-4-yl)vinyl)pyridin-2-yl)oxy)cyclobutoxy)piperidin-1-yl)ethoxy)isoxazol-5-yl)-3-methylbutanoyl)-4-hydroxy-N-((S)-1-(4-(4-methylthiazol-5-yl)phenyl)ethyl)pyrrolidine-2-carboxamide]	< 2.5	> 75
Cc1ncsc1-c1ncc([C@H](C)NC(=O)[C@@H]2C[C@@H](O)CN2C(=O)[C@H](c2cc(OCCN3CCC(O[C@H]4C[C@H](Oc5cc(N6C7CCC6CN(c6cc(-c8ccccc8O)nnc6N)C7)ccn5)C4)CC3)no2)C(C)C)cn1 [compound 429, (2S,4R)-1-((2S)-2-(3-(2-(4-((1r,3S)-3-((4-(3-(3-amino-6-(2-hydroxyphenyl)pyridazin-4-yl)-3,8-diazabicyclo[3.2.1]octan-8-yl)pyridin-2-yl)oxy)cyclobutoxy)piperidin-1-yl)ethoxy)isoxazol-5-yl)-3-methylbutanoyl)-4-hydroxy-N-((S)-1-(2-(4-methylthiazol-5-yl)pyrimidin-5-yl)ethyl)pyrrolidine-2-carboxamide]	> 30	–
Cc1ncsc1-c1ncc([C@H](C)NC(=O)[C@@H]2C[C@@H](O)CN2C(=O)[C@@H](c2cc(OCCN3CCC(O[C@H]4C[C@H](Oc5cc(N6C7CCC6CN(c6cc(-c8ccccc8O)nnc6N)C7)ccn5)C4)CC3)no2)C(C)C)cn1 [compound 430, (2S,4R)-1-((2R)-2-(3-(2-(4-((1r,3R)-3-((4-(3-(3-amino-6-(2-hydroxyphenyl)pyridazin-4-yl)-3,8-diazabicyclo[3.2.1]octan-8-yl)pyridin-2-yl)oxy)cyclobutoxy)piperidin-1-yl)ethoxy)isoxazol-5-yl)-3-methylbutanoyl)-4-hydroxy-N-((S)-1-(2-(4-methylthiazol-5-yl)pyrimidin-5-yl)ethyl)pyrrolidine-2-carboxamide]	2.5 to 10	> 75
Cc1cc([C@@H](C(=O)N2C[C@H](O)C[C@H]2C(=O)N[C@@H](C)c2ccc(-c3scnc3C)cc2)[C@@H](C)COCCCCOc2cc(N3C4CCC3CN(c3cc(-c5ccccc5O)nnc3N)C4)ccn2)on1 [compound 431, (2S,4R)-1-((2S,3R)-4-(4-((4-(3-(3-amino-6-(2-hydroxyphenyl)pyridazin-4-yl)-3,8-diazabicyclo[3.2.1]octan-8-yl)pyridin-2-yl)oxy)butoxy)-3-methyl-2-(3-methylisoxazol-5-yl)butanoyl)-4-hydroxy-N-((S)-1-(4-(4-methylthiazol-5-yl)phenyl)ethyl)pyrrolidine-2-carboxamide]	< 2.5	> 75
Cc1cc([C@H](C(=O)N2C[C@H](O)C[C@H]2C(=O)N[C@@H](C)c2ccc(-c3scnc3C)cc2)[C@@H](C)COCCCCOc2cc(N3C4CCC3CN(c3cc(-c5ccccc5O)nnc3N)C4)ccn2)on1 [compound 432, (2S,4R)-1-((2R,3R)-4-(4-((4-(3-(3-amino-6-(2-hydroxyphenyl)pyridazin-4-yl)-3,8-diazabicyclo[3.2.1]octan-8-yl)pyridin-2-yl)oxy)butoxy)-3-methyl-2-(3-methylisoxazol-5-yl)butanoyl)-4-hydroxy-N-((S)-1-(4-(4-methylthiazol-5-yl)phenyl)ethyl)pyrrolidine-2-carboxamide]	10 to 30	> 75
Cc1ncsc1-c1ccc([C@H](C)NC(=O)[C@@H]2C[C@@H](O)CN2C(=O)[C@H](c2cc(N3CCC(CO[C@H]4C[C@H](Oc5cc(N6C7CCC6CN(c6cc(-c8ccccc8O)nnc6N)C7)ccn5)C4)CC3)no2)C(C)C)cc1 [compound 433, (2S,4R)-1-((2S)-2-(3-(4-(((1r,3S)-3-((4-(3-(3-amino-6-(2-hydroxyphenyl)pyridazin-4-yl)-3,8-diazabicyclo[3.2.1]octan-8-yl)pyridin-2-yl)oxy)cyclobutoxy)methyl)piperidin-1-yl)isoxazol-5-yl)-3-methylbutanoyl)-4-hydroxy-N-((S)-1-(4-(4-methylthiazol-5-yl)phenyl)ethyl)pyrrolidine-2-carboxamide]	2.5 to 10	> 75

Reference: patent publication US12539292B2, “BRM targeting compounds and associated methods of use” (Arvinas Operations, Inc., priority 2018, dated 2026)
